Like-named read-outs stand apart in the source and are kept apart here.
Legend:
[1] = target: T1, Presenilin-1-comprised γ-secretase (Homo sapiens, UniProt P49768); experiment: Aβ1-x ELISA in Presenilin-1 transfected PS1/PS2 double knockout mouse fibroblasts; type: cell-based
T1 construct: expressed in transfected cells; host or cells: mouse fibroblasts derived from PS1/PS2 double knockout cells, pCF vector
Text: (§1) A131-x represents any Aβ peptides longer than Aβ1-23, including Aβ38, Aβ40, and Aβ42, since Aβ1-x is defined operationally by an ELISA assay using proprietary antibody mAb 266 for capture and proprietary antibody mAb 3D6 for detection. The epitope for mAb266 is Aβ16-23, and the epitope for mAb 3D6 is Aβ1-5. […] Aβ40 ELISA employed antibodies mAb 266 as capture and 2G3 (specific for Ab40) as detection, respectively. Furthermore, Aβ42 ELISA employed antibodies mAb 266 as capture and 21F12 as detection, respectively. Hybridomas producing antibodies against Aβ16-23 were generated by standard murine fusion procedures as detailed in Kohler and Milstein (Nature 256:495 1975) and U.S. Pat. No. 4,666,829 which are hereby incorporated by reference in their entireties. See also “Detailed Description” herein. Briefly, two BALB/c mice immunized with Aβ13-28 conjugated to 2C-11 (a T-cell receptor monoclonal antibody) were sacrificed and the spleens removed. Mixed splenocytes were obtained by pressing the spleens through a 30 mesh stainless steel screen. These were fused with P3X63Ag8 murine myeloma cells (aminopterin sensitive) at a fusion ratio of 10:1 in 35% polyethylene-glycol. These cells were plated out in 96 well tissue culture plates in the presence of 2×10^6 thymocytes/ml. Hybridomas were selected for by growing the cells in the presence of aminopterin poisoned Dulbecco's modified Eagle's media augmented with hypoxanthine, thymine and 10% fetal bovine serum. Hybridomas were screened for reactivity against Aβ13-28 and AAP protein via ELISA. Positive clones were sub-cloned twice. Aliquots of the clones were frozen and stored in liquid nitrogen. Supernatants from positive clones were produced in large quantities for further purification of monoclonal antibodies.
(§2) For ELISA assays, each well of 96-well ELISA plates was coated with 100 μl of 10 μg/ml 266 in Well Coating Buffer (pH 8.5) at 4 degrees overnight, and blocked with 0.25% human BSA solution at 25 degrees for 120 minutes. The plate can be used directly without wash, after removing blocking solution.
(§3) ELISA assays were performed at room temperature. Fifty μl of conditioned medium from overnight culture of transfected cells, with or without gamma secretase inhibitors, were added to each well of ELISA plates, and incubated for 1 hour. After washing plates with Tris-buffered saline (TBS) plus 0.05% Tween-20, 50 μl biotinylated 3D6 antibody at 0.5 μg/ml was added to each well and incubate for 45 minutes. […] Next, plates were washed with Tris-buffered saline (TBS) plus 0.05% Tween-20, and 50 μl substrate (1-step slow TMB-Elisa, Pierce, Woburn, Mass., USA, catalogue number: 34024) was added to each well and incubated for 15 min. Finally, substrate reactions were terminate by adding to each well 15 ul 2 NH2SO4, and OD readings were obtained on SpectraMax Plus (Molecular Devices, Sunnyvale, Calif., USA). The Aβ concentration of samples was then obtained by comparing sample OD readings to those of standards.
(§4) EC50 values were derived by curve fitting of Aβ1-x levels, for samples treated with various concentrations of gamma secretase inhibitors, with XLfit software program (IDBS, Alameda, Calif., USA). Differences in EC50 values obtained for Presenilin-1 transfected cells and Presenilin-2 transfected cells exposed to a test compound served as an indicator of differential inhibition.
(§5) Transfected mouse fibroblasts derived from the PS1/PS2 double knockout cells are grown at 37 degree under 10% CO2 in Dulbecco's modified Eagle's medium (DMEM) containing 2-10% fetal bovine serum (FBS) and 100 μg/ml penicillin/streptomycin (Pen/Strp) (Invitrogen Corporation, Carlsbad, Calif., USA).
(§6) Cell culture medium is then removed from the transfected cell lines and analyzed for Aβ1-x levels by ELISA assay, as described in Example 1. ELISA assays are performed using ELISA plates coated with the mAb 266 to capture Aβ peptides and then by detecting Aβ peptides with biotinylated mAb 3D6.

[2] = target: T2, Presenilin-2-comprised γ-secretase (Homo sapiens, UniProt P49810); experiment: Aβ1-x ELISA in Presenilin-2 transfected PS1/PS2 double knockout mouse fibroblasts; type: cell-based; details: for inhibition at 10 µM: compound concentration of 10 uM, estimated from the inhibition curve
T2 construct: expressed in transfected cells; host or cells: mouse fibroblasts derived from PS1/PS2 double knockout cells, pCF vector
Text: as §1, §2, §3, §4, §5, §6

[3] = test system: Presenilin-1-comprised γ-secretase relative to Presenilin-2-comprised γ-secretase; experiment: PS1/PS2 selectivity: ratio of EC50 in Presenilin-2 and Presenilin-1 transfected cells; type: cell-based, human; details: for PS2/PS1 EC50 ratio: EC50 of Presenilin-2 transfected cells over Presenilin-1 transfected cells
Text: as §4
Cell culture medium is then removed from the transfected cell lines and analyzed for Aβ1-x levels by ELISA assay, as described in Example 1. ELISA assays are performed using ELISA plates coated with the mAb 266 to capture Aβ peptides and then by detecting Aβ peptides with biotinylated mAb 3D6. EC50 values are derived for all of the test compounds. Differences in EC50 values obtained for Presenilin-1 transfected cells and Presenilin-2 transfected cells exposed to a test compound serve as an indicator of differential inhibition.
For example, several tested compounds are sulfonamide compounds, while several are non-sulfonamide compounds. The ratio of the EC50 value obtained for Presenilin-2 transfected cells and Presenilin-1 transfected cells (indicated in the last column of Table I) indicates the degree to which the test compound is capable of preferentially inhibiting Presenilin-1. […] In Table 2, the values shown in columns A, B and C are EC50 values (nM). Where inhibition was very low, EC50 values were not generated by the program; thus EC50 values are not provided. Rather, percent of inhibition was estimated based on the inhibition curve generated by the program. Percentages indicate percentage inhibition at a compound concentration of 10 uM. […]

293sw = 293sw IC50 of gamma-secretase inhibitors; type: cell-based
[4] = column A, Aβ1-x, Presenilin-1 transfected cells, overnight, read-out: PS1 EC50 (nM) A
[5] = column B, Aβ1-x, Presenilin-1 transfected cells, overnight, read-out: PS1 EC50 (nM) B
[6] = column A, Aβ1-x, Presenilin-2 transfected cells, overnight, read-out: PS2 EC50* (nM) A
[7] = column B, Aβ1-x, Presenilin-2 transfected cells, overnight, read-out: PS2 EC50* (nM) B
[8] = column A, read-out: PS2 percentage inhibition, column A
[9] = column B, read-out: PS2 percentage inhibition, column B
[10] = column C, Aβ1-x, Presenilin-1 transfected cells, overnight, read-out: PS1 EC50 (nM) C
[11] = mean values from 2 independent experiments (FIG. 11)

| Compound | EC50 [1, 4] [nM] | EC50 [1, 5] [nM] | EC50 [2, 6] [nM] | EC50 [2, 7] [nM] | PS2/PS1 EC50 ratio [3] | IC50 (293sw) [nM] | EC50 [1, 10] [nM] | other results |
| --- | --- | --- | --- | --- | --- | --- | --- | --- |
| Cc1nc(-c2ccc(CN([C@@H]3CCCCNC3=O)S(=O)(=O)c3ccc(Cl)cc3)cc2)no1 | 105 | 98 | 750 | 809 | 8 | 44 |  |  |
| O=C1NCCCC[C@H]1N(Cc1ccc(Br)cc1)S(=O)(=O)CC(F)(F)F | 1280 | 686 |  |  | >10 | 308 |  | inhibition at 10 µM [2, 8]: 20%; inhibition at 10 µM [2, 9]: 19% |
| C[C@H](NC(=O)[C@@H](O)c1cc(F)cc(F)c1)C(=O)N[C@@H]1C(=O)N(C)c2ccccc2-c2ccccc21 |  |  |  |  |  | 0.064 |  |  |
| C[C@H](NC(=O)[C@@H](O)c1cc(F)cc(F)c1)C(=O)N[C@H](C(=O)NCC1CN(c2ccccc2)CCO1)c1ccccc1 (some centres unmarked) | 10 | 37 | 45 | 44 | 2 | 41 | 17.5 |  |
| O=C1NCCCC[C@H]1N(Cc1ccc(Br)cc1)S(=O)(=O)c1ccc(Cl)nc1 | 92 | 189 | 1570 | 2290 | 31 | 118 | 87 |  |
| C[C@H](NC(=O)[C@@H](O)c1cc(F)cc(F)c1)C(=O)Nc1cc(C(C)(C)c2ccccc2)n[nH]1 | 8.2 | 8.3 | 26 | 23 | 2 | 1 | 19 |  |
| O=C1NCCCC[C@H]1N(Cc1ccc(Br)cc1)S(=O)(=O)c1ccc(Cl)cc1 | 106 | 259 | 1920 | 3410 | 15 | 243 | 159 |  |
| Cn1nnc2cc(CN([C@@H]3CCCCNC3=O)S(=O)(=O)c3ccc(Cl)cc3)ccc21 | 40 | 75 | 589 | 924 | 15 | 51 | 42 |  |
| O=C1NCCCC[C@H]1N(CCCN1C(=O)c2ccccc2C1=O)S(=O)(=O)c1ccc(Cl)cc1 | 3720 | 6960 |  |  | >10 | 221 |  | inhibition at 10 µM [2, 8]: 28%; inhibition at 10 µM [2, 9]: 4% |
| C/C(=C\c1ccccc1)CN([C@@H]1CCNC1=O)S(=O)(=O)c1ccc(Cl)cc1 | 2170 | 1980 |  |  | >10 | 337 |  | inhibition at 10 µM [2, 8]: 1%; inhibition at 10 µM [2, 9]: 0% |
| COc1ccc(CN(C2CCCCNC2=O)S(=O)(=O)c2ccc(Cl)cc2)cc1OC (centres unmarked) | 228 | 425 |  |  | ˜30 |  |  | inhibition at 10 µM [2, 8]: 45%; inhibition at 10 µM [2, 9]: 50% |
| COc1ccc(CN(C2CCCCC2C)S(=O)(=O)c2ccc(Cl)cc2)cc1OC (centres unmarked) | 49 | 48 | 606 | 404 | 10 | 55 |  |  |
| O=C1NCCCC[C@H]1N(Cc1cc2ccccc2o1)S(=O)(=O)c1ccc(Cl)cc1 | 30 | 63 | 2420 | 1880 | 46 |  | 50 | EC50 ([2]; column C, Aβ1-x, Presenilin-2 transfected cells, overnight, read-out: PS2 EC50* (nM) C): 2380 nM |
| C[C@H](NC(=O)Cc1cc(F)cc(F)c1)C(=O)N[C@H](C(=O)OC(C)(C)C)c1ccccc1 [DAPT, reference compound] |  |  |  |  |  |  |  | fold more selective for PS2 [3, 11]: 2 fold |
| C[C@H](NC(=O)c1ccc(CN([C@@H]2CCCCNC2=O)S(=O)(=O)c2ccc(Cl)cc2)cc1)c1ccccc1 | 143 | 139 | 465 | 777 | 4 |  |  |  |
| CC(C)C[C@H](NC(=O)[C@H](Cc1ccccc1)C[C@@H](O)[C@H](Cc1ccccc1)NC(=O)OC(C)(C)C)C(=O)N[C@@H](Cc1ccccc1)C(N)=O [L-685,458, reference compound] |  |  |  |  |  |  |  | fold more selective for PS1 [3, 11]: ~3 fold |
| C[C@H](c1ccc(F)cc1CCCC(=O)O)N(c1cc(F)ccc1F)S(=O)(=O)c1ccc(Cl)cc1 [reference compound] | 21 | 17 | 223 | 247 | 12 |  |  |  |
| COc1ccc(CN([C@H]2CCCCNC2=O)S(=O)(=O)c2ccc(Cl)cc2)cc1OC |  |  |  |  |  | 10000 |  | EC50 ([1]; column A, bound given in μM, read-out: PS1 EC50 A): > 10000 nM; EC50 ([1]; column B, bound given in μM, read-out: PS1 EC50 B): > 10000 nM; EC50 ([2]; column A, bound given in μM, read-out: PS2 EC50 A): > 10000 nM; EC50 ([2]; column B, bound given in μM, read-out: PS2 EC50 B): > 10000 nM |
